The target of one series is T1, Trypsin (Bos taurus, UniProt P00760).
T1 sequence (P00760 24-246): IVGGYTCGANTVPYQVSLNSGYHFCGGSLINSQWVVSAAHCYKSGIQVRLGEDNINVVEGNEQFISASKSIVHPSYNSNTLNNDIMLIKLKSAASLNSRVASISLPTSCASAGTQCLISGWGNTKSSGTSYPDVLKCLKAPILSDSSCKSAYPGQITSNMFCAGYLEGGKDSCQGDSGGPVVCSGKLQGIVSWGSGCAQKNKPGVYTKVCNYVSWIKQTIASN
As for the experimental part:
(§1) Melimine was used as positive control as it is a cationic antimicrobial peptide that can be hydrolysed by proteases. The Expasy peptide cutter module (https://web.expasy.org/peptide_cutter/) was accessed to predict which proteases might digest melimine. The susceptibility of the antimicrobial compounds to digestion by two proteases expected to digest melimine, Proteinase K (120 unit mL^−1 in 20 mM Tris HCl, pH 7.4; New England Bio Labs, Australia) and Trypsin (10,350 BAFE units/mg in 50 mM borate buffer, pH 8.5; Thermo Scientific products, Australia), was tested. The peptoids and melimine were incubated with each protease at the ratio (w/w) of 1:100 in PBS (pH 7.4) for 24 h at 37 °C. After incubation, the peptoid/melimine + protease solutions were tested for their activity against P. aeruginosa 216 which was grown overnight in TSB at 37 °C. Bacterial cells were washed three times in PBS and then resuspended in MHB OD660nm of 0.1 (equal to 1x10^8 CFU mL^−1. The bacterial suspension was then diluted in MHB to a final working concentration of 5x10^6 cells mL^−1. The diluted bacterial suspension was subsequently added to the wells containing the peptoids/melimine + protease solution and incubated for 24 h at 37 °C. Peptoids/melimine solutions alone (no proteases) were used as a positive control, while protease solutions without the peptoids/melimine were used as a negative control. Post incubation, to inhibit the activity of the proteases, the bacterial suspensions were heated at 55 °C for 10 min in a water bath. After the heating step, the absorbance of the suspensions was measured at OD660nm.

The target in another series is Proteinase K (Parengyodontium album, UniProt P06873). How it is done: as §1
In a further series the test system is Bacillus subtilis. The note with it: cited from earlier work. How it is done:
(§2) Peptoids act similarly to AMPs as their cationic regions interact electrostatically with the anionic membranes of bacteria and may also facilitate the targeting of intracellular DNA and ribosomal agglutination. […] For example, peptoids can have minimum inhibitory concentrations as low as 1.8 μg mL^−1 against Bacillus subtilis and 12.4 μg mL^−1 against Escherichia coli, whereas these bacteria had MICs of 4.5 μg mL^−1 and 35.6 μg mL^−1, respectively, with the AMP melittin [31] Di-guanidine peptoids, produced via acid amine-coupling between nap ...

The next series has as its system Escherichia coli. Conditions: cited from earlier work. As for the experimental part: as §2
Setting [1] is: incubated with protease at ratio (w/w) 1:100 in PBS pH 7.4, 24 h 37 °C, then P aeruginosa 216 in MHB 24 h 37 °C, OD660nm.
[2] abbreviates: result in words, 24 h 37 °C, P. aeruginosa 216.

Results on two substances are retold here after paper PMC11024869, “The activity of antimicrobial peptoids against multidrug-resistant ocular pathogens” (Contact lens & anterior eye : the journal of the British …, 2024).

No end group written: not given here.

Proteinase K, sequence (P06873 106-384): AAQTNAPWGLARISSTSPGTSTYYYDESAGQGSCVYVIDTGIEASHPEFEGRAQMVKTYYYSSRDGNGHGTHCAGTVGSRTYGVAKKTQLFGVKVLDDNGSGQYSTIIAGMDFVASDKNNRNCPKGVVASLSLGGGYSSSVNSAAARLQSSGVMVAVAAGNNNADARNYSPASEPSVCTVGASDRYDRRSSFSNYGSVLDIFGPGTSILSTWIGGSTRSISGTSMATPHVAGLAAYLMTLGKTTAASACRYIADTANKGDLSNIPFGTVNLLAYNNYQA

Consider “TLISWIKNKRKQRPRVSRRRRRRGGRRRR [Melimine, reference compound]”, for which the “MIC after Trypsin” value on Trypsin (setting [1]) is given as >250 (66) μg mL^−1. Also, on Trypsin (setting [2]), the “antimicrobial activity after digestion with trypsin” value is listed as “lost all of its antimicrobial activity”. Besides, the “MIC after Proteinase K” value at Proteinase K (setting [1]) is >250 (66) μg mL^−1. Further, the “antimicrobial activity after digestion with proteinase K” value on Proteinase K (setting [2]) is given as “lost all of its antimicrobial activity”.
For orientation: MIC means the least concentration at which growth counts as inhibited. With melittin: the AMP melittin, the values for the MIC in the series with Bacillus subtilis and with Escherichia coli were 4.5 µg/mL and 35.6 µg/mL, respectively.
